Measurements taken from patent publication US9226897B2, “Self-assembling nanoparticles for the release of bisphosphonates in the treatment of human cancers” (Istituti Fisioterapici Ospitalieri, priority 2010, dated 2016).
pIC50: −log10 of the molar value.

Columns and labels:
MIA PaCa = assay: MTT proliferation assay, MIA PaCa pancreas cancer cells; format: cell-based; conditions: Homo sapiens, MIA PaCa-2, 72 h, read-out: IC50 (50% inhibitory concentration), growth inhibition
Procedure: (§1) Human melanoma cells (M14) and doxorubicin resistant cells (M14+) were provided by Prof. G. Arancia form the National Institute of Health of Rome. […] Proliferation of human cancer cell lines was performed in the presence of increasing concentrations of different drugs by MTT assay as previously described by Caraglia et al. (Oncogene 2004).
(§2) It was studied the effect of increasing concentrations of ZOL encapsulated in pre- and post-PLCaP NPs on growth inhibition of different human cancer cell lines, by MTT assay. In Table 2, the IC50 (50% inhibitory concentration) values of ZOL, free or encapsulated in pre- or post-PLCaP NPs, in the different cell lines analysed after 72 h, are reported. […] Moreover, when using ZOL-encapsulating NPs, we found a potentiation factor (PF)>1.0 in all tested cell lines, if compared with the free ZOL. […] In particular, on MCF7, pre-PLCaPZ NPs caused an about 12-fold potentiation of ZOL-induced cytotoxicity, while a lower effect (about 8-fold) was found with post-PLCaP NPs.

Panc = assay: MTT proliferation assay, Panc pancreas cancer cells; format: cell-based; conditions: Homo sapiens, 72 h, read-out: IC50 (50% inhibitory concentration), growth inhibition
Procedure: as §1, §2

RPMI = assay: MTT proliferation assay, RPMI multiple myeloma cells; format: cell-based; conditions: Homo sapiens, Multiple myeloma cell, 72 h, read-out: IC50 (50% inhibitory concentration), growth inhibition
Procedure: as §1, §2

MDA-MB468 = assay: MTT proliferation assay, MDA-MB468 breast cancer cells; format: cell-based; conditions: Homo sapiens, MDA-MB-468, 72 h, read-out: IC50 (50% inhibitory concentration), growth inhibition
Procedure: as §1, §2

DU145 = assay: MTT proliferation assay, DU145 prostate cancer cells; format: cell-based; conditions: Homo sapiens, DU-145, 72 h, read-out: IC50 (50% inhibitory concentration), growth inhibition
Procedure: as §1, §2

PC3 = assay: MTT proliferation assay, PC3 prostate cancer cells; format: cell-based; conditions: Homo sapiens, PC-3, 72 h, read-out: IC50 (50% inhibitory concentration), growth inhibition
Procedure: as §1, §2

OPM2 = assay: MTT proliferation assay, OPM2 multiple myeloma cells; format: cell-based; conditions: Homo sapiens, OPM-2, 72 h, read-out: IC50 (50% inhibitory concentration), growth inhibition
Procedure: as §1, §2

MCF7 = assay: MTT proliferation assay, MCF7 breast cancer cells; format: cell-based; conditions: Homo sapiens, 72 h, read-out: IC50 (50% inhibitory concentration), growth inhibition
Procedure: as §1, §2

KB = assay: MTT proliferation assay, KB head/neck cancer cells; format: cell-based; conditions: Homo sapiens, 72 h, read-out: IC50 (50% inhibitory concentration), growth inhibition
Procedure: as §1, §2

H1355 = assay: MTT proliferation assay, H1355 lung cancer cells; format: cell-based; conditions: Homo sapiens, NCI-H1355, 72 h, read-out: IC50 (50% inhibitory concentration), growth inhibition
Procedure: as §1, §2

CG5 = assay: MTT proliferation assay, CG5 breast cancer cells; format: cell-based; conditions: Homo sapiens, 72 h, read-out: IC50 (50% inhibitory concentration), growth inhibition
Procedure: as §1, §2

[1] = cited from earlier work
DOX = assay: MTT proliferation assay, DOX multiple myeloma cells; format: cell-based; conditions: Homo sapiens, Multiple myeloma cell, 72 h, read-out: IC50 (50% inhibitory concentration), growth inhibition
Procedure: as §1, §2

PC-3 cells = assay: In vivo antitumoral activity on prostate cancer, PC-3 xenograft in nude mice; parameters: species or system CD-1 nude (nu/nu) mice; conditions: PC-3 tumors in nude mice, 20 μg ZOL i.v. three times a week for three weeks
Procedure: CD-1 nude (nu/nu) mice, 6-8 weeks old were purchased from Charles River Laboratories (Milano, Italy).
Mice have been acclimated for one week before to be injected with tumor cells. Mice were injected intramuscularly with tumor cells at 3×10^6 cells/mouse in 200 μl of PBS. Six days after, a tumor mass of about 0.3 cm^3 in diameter was evident, mice were randomized in four groups. Six mice/group were treated with ZOL free or NP containing ZOL for 3 consecutive weeks. Tumor mass was calculated three times a week from caliper measurements by using the formula π/6 AB, where A is the major diameter and B is the minor diameter, corresponding to tumor mass (Sommer K. et al. International Journal of Oncology 2001). Toxicity was evaluating by measuring the body weight two times a week. Student's t test was used for statistical comparison of differences.
As control, a group of mice was treated with NP not containing ZOL, to evaluate the potential antitumoral effects. Mice were treated three times a week for three consecutive weeks. Antitumor efficacy of treatments was assessed by the following end-points: a) percent tumor weight inhibition (TWI %), calculated as [1-(mean tumor weight of treated mice/mean tumor weight of controls)]×100; b) tumor growth delay, evaluated as T−C, where T and C are the median times for treated (T) and untreated tumors (C), respectively, to achieve equivalent size.

BX-PC3 = assay: MTT proliferation assay, BX-PC3 pancreas cancer cells; format: cell-based; conditions: Homo sapiens, BXPC-3, 72 h, read-out: IC50 (50% inhibitory concentration), growth inhibition
Procedure: as §1, §2

KMS = assay: MTT proliferation assay, KMS multiple myeloma cells; format: cell-based; conditions: Homo sapiens, Multiple myeloma cell, 72 h, read-out: IC50 (50% inhibitory concentration), growth inhibition
Procedure: as §1, §2

[2] = ZOL 4 mg intravenous over 15 min

O=P(O)(O)C(O)(Cn1ccnc1)P(=O)(O)O [free ZOL, zoledronic acid]
pIC50 (MIA PaCa): 4.26
pIC50 (Panc): 4.49
pIC50 (RPMI): 3.92
pIC50 (MDA-MB468): 4.55
pIC50 (DU145): 4.60
pIC50 (PC3): 4.90
pIC50 (OPM2): 4.08
pIC50 (MCF7): 3.92
pIC50 (KB): 4.64
pIC50 (H1355): 4.19
pIC50 (CG5): 4.13
distribution plasma half-life (t1/2) [1, 2]: 0.25 h
elimination plasma half-life (t1/2β) [1, 2]: 1.75 h
Cmax ([1]; ZOL 4 mg intravenous over 15 min, read-out: maximum plasma concentration (Cmax)): ~1000 nM
initially administered dose retained in the skeleton ([1]; in vivo): approximately 55%
pIC50 (DOX): 4.38
TWI (%), percent tumor weight inhibition (PC-3 cells; at the nadir of the effect): 17%
T-C (days), tumor growth delay (PC-3 cells; median times to equivalent size): 5 days
pIC50 (BX-PC3): 4.91
pIC50 (KMS): 4.52
